Each block holds one molecule with its values, some of them ahead of it.
What was measured:
Format in all cases: biochemical, Methylomonas sp. 12
ATP-Glk [1] = biological target: T1, ATP-Glk (Methylomonas sp., UniProt A0A3G4RI75); experiment: effect on glucokinase activity with ATP and glucose
T1 construct: full-length, His6-tagged (N-terminal), pET30(a)+ in E. coli Rosetta (DE3), Ni-NTA; gene 990 bp; di- to hexamers
From the text: effect on glucokinase activity with ATP and glucose on ATP-Glk

polyP-Glk [2] = biological target: T2, polyP-Glk (Methylomonas sp., UniProt A0A3G4RHV5); experiment: effect on glucokinase activity with polyP and glucose; details: polyP (n=45) and glucose as substrates; activator, not a phosphoryl donor; ATP concentration not printed in table (10 mM elsewhere in the source)
T2 construct: gene pglk; full-length, His6-tagged (N-terminal), E. coli Rosetta (DE3), Ni-NTA; gene 795 bp; dimer with polyP
T2 sequence (A0A3G4RHV5 1-264): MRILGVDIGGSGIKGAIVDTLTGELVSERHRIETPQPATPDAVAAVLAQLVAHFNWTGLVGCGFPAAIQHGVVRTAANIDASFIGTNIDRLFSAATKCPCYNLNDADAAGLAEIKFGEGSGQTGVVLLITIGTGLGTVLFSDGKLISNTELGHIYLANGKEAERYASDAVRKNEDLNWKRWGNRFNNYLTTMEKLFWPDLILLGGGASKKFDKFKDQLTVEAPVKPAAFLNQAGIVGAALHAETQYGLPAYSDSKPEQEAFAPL
From the text: effect on glucokinase activity with polyP and glucose on polyP-Glk

ATP-Glk [3] = biological target: T1, ATP-Glk; experiment: glucose 6-phosphate dehydrogenase coupled NADP+ reduction at […] nm; details: saturating ATP; Mg2+; pH 7.5; 30 °C
polyP-Glk [4] = biological target: T2, polyP-Glk; experiment: as above; details: saturating polyP (n=45); Mg2+; pH 8.5; 28 °C
[5] = tested on: T3, Nc1ncnc2c1ncn2[C@@H]1O[C@H](COP(=O)(O)OP(=O)(O)OP(=O)(O)O)[C@@H](O)[C@H]1O; experiment: purified protein; details: saturating glucose, Mg2+, pH 7.5, 30 °C
T3 construct: full-length, His6-tagged (N-terminal), pET30(a)+ in E. coli Rosetta (DE3), Ni-NTA; gene 990 bp; di- to hexamers

T1 sequence (A0A3G4RI75 1-329): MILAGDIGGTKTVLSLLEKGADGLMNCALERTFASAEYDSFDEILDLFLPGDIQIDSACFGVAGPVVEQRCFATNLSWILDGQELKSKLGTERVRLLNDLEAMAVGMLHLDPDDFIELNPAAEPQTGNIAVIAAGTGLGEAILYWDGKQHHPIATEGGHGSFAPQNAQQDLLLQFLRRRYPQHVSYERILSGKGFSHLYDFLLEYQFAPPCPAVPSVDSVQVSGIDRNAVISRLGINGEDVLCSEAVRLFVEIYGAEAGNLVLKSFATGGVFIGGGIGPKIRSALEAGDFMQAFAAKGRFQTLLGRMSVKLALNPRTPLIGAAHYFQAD

activity at 5000 µM (ATP-Glk [1]): 48.9%
Molecule: Nc1ncnc2c1ncn2[C@@H]1O[C@H](COP(=O)(O)OP(=O)(O)O)[C@@H](O)[C@H]1O [ADP]

PolyP-Glk ** (polyP-Glk [2]): 155.0%
Molecule: Nc1ncnc2c1ncn2[C@@H]1O[C@H](COP(=O)(O)OP(=O)(O)OP(=O)(O)O)[C@@H](O)[C@H]1O [ATP]

Km (ATP-Glk [3]): 80 ± 7 µM
Km (polyP-Glk [4]): 450 ± 120 µM
Molecule: OC[C@H]1OC(O)[C@H](O)[C@@H](O)[C@@H]1O (stereo partly shown) [glucose]

Molecule: ATP-Glk (Methylomonas methanica)
Km [5]: 78 ± 5.6 µM
kcat [5]: 0.126 s⁻¹
kcat/Km [5]: 1610 M⁻¹ s⁻¹
